Assay results published in US20030186424A1, “Reagents and methods for identifying and modulating expression of genes regulated by CDK inhibitors” (priority 2001, published 2003).

B1: Bax TATA box core promoter probe (dsDNA)
DNA 1: ACTCAGTTTTTAGTCATCTATAACGTCCTGCCTGGAAGCATGCTATTTTGGGCCTCTGAGCTT
DNA 2: AAGCTCAGAGGCCCAAAATAGCATGCTTCCAGGCAGGACGTTATAGATGACTAAAAACTGAGT

How the values were obtained:
CRD1 domain of p300 = assay: CRD1 dependent stimulation of transcription (Gal4 p300 CRD1+ luciferase reporter); assay type: cell-based, human; conditions: treatment of cells with the compound; data not shown
Experimental: Calcium phosphate transfections of U-2 OS cells were performed substantially as disclosed in Webster & Perkins (1999, Mol. Cell. Biol. 19: 3485-3495). Briefly, transfections were performed in 6 cm dishes using 2 μg of reporter plasmid, 1.6 μg of RSV p21 or RSV ADH control plasmid and 5 ng of Gal4 expression plasmid (except where indicated in the figure legend). Cells were harvested approximately 40 hours after transfection. Lysates were prepared using passive lysis buffer (Promega) and luciferase assays were performed according to manufacturer's instructions (Promega). All experiments were performed separately, a minimum of three times before calculating means and standard errors as shown in the Figures. Relative luciferase levels were calculated by referring to the level of activity seen with the Gal4 DNA-binding domain (amino acids 1-147) not fused to a heterologous activator, except when specifically referred to.
Wild type p21 and the two mutants were cotransfected with Gal4 p300^CRD+ (192-1044) and Gal4 E1B luciferase into U-2 OS cells. Both mutants stimulated transcriptional activity to the same extent as the wild type protein (FIG. 8B), consistent with a Cyclin/CDK independent role for p21 regulation of CRD1. […]

TBP + TFIIB complex = TBP + TFIIB complex (UniProt P20226;Q00403 P20226:1-339,Q00403:1-316); assay: EMSA; no complex seen; 30 C, 4 mM MgCl2, 55 mM KCl; exact probe span not stated; conditions: tags: gift from Stefan Roberts, University of Manchester; label: 32P
Description: The sequence of the TATA box and surrounding sequences was known in the art to influence binding of basal transcription factors (Lieberman et al., 1997, Mol. Cell. Biol. 17: 6624-6632). Since the Bax TATA sequence differs considerably from AdML, these constructs were used to determine whether the observed structural differences would be associated with differential binding of the core transcription factors TBP (TATA binding protein) and TFIIB. In these experiments, purified recombinant TBP and TFIIB were therefore incubated with ³²P labeled probes containing the AdML and Bax TATA boxes and analyzed by electrophoretic mobility shift assay (EMSA), performed as follows. ³²P labeled probe DNA was incubated for 1 hr at 30° C. with ˜1 ng purified recombinant TBP, ˜2 ng purified recombinant TFIIB (both proteins gifts from Dr Stefan Roberts, University of Manchester), 5 μg BSA, 250 ng poly(dG.dC) competitor and 12 μL buffer (having a formula of 10 mM Hepes pH7.9, 0.2 mM EDTA, 55 mM KCl, 4 mM MgCl₂, 5 mM ammonium sulphate, 8% v/v glycerol, 2% v/v polyethylene glycol, 5 mM β-mercaptoethanol, and 0.2 mM PMSF). Samples were then resolved using a 4.8% acrylamide gel (in 0.5×TB buffer). The gel was then dried and exposed to film.

TBP + TFIIB complex, sequence (P20226 whole entry, chain 1 of 2): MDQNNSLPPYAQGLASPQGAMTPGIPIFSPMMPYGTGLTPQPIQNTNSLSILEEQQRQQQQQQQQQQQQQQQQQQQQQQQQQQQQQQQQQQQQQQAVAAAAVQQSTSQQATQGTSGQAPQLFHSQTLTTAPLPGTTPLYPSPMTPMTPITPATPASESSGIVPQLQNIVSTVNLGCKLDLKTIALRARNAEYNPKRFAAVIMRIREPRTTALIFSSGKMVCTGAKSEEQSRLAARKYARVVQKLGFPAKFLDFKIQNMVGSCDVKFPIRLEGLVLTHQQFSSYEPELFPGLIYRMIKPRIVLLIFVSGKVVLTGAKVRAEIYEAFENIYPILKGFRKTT
TBP + TFIIB complex, sequence (Q00403 whole entry, chain 2 of 2): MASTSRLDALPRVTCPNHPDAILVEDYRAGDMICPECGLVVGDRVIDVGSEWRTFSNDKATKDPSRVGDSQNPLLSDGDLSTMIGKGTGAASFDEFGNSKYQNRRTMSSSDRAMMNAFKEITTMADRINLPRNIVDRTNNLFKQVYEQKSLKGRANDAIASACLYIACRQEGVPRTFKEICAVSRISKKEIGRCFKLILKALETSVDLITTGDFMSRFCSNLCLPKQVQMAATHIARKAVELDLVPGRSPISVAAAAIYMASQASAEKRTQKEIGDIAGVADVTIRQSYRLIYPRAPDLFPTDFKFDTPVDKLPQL

Molecule | CRD1 dependent stimulation of transcription (CRD1 domain of p300) | binding result (TBP + TFIIB complex)
CC[C@H](CO)Nc1nc(NCc2ccccc2)c2ncn(C(C)C)c2n1 [roscovitine] | does not result in CRD1 dependent stimulation of transcription | –
NC(Cn1ccc(=O)c(O)c1)C(=O)O (stereo not drawn) [mimosine] | does not result in CRD1 dependent stimulation of transcription | –
B1 | – | no binding
